The source of these data is ChEMBL document CHEMBL5357082, “Identification and Optimization of Small Molecule Pyrazolopyrimidine TLR7 Agonists for Applications in Immuno-oncology” (ACS Med Chem Lett, 2024).

Series [1] in a line: Cytotoxicity against PHA-activated T-cells (unknown origin) assessed as inhibition of IL-2 induced cell proliferation measured after 72 hrs by MTS assay. The series is classed as toxicity, cell-based.
Series [2] concerns the target T1, Cytochrome P450 3A4 (Homo sapiens, UniProt P08684). The experiment in a line: Inhibition of CYP3A4 (unknown origin) using BFC as substrate. It counts as ADME.
For series [3], the target named is Voltage-gated inwardly rectifying potassium channel KCNH2 (Homo sapiens, UniProt Q12809). The experiment in a line: Inhibition of hERG. It counts as toxicity.
Series [4] concerns the target T1, Cytochrome P450 3A4. The experiment in a line: Inhibition of CYP3A4 (unknown origin) using BFC as substrate preincubated with compound followed by substrate addition at 30 mins. It counts as ADME.
In series [5] the target is Cytochrome P450 2D6 (Homo sapiens, UniProt P10635). The experiment in a line: Inhibition of CYP2D6 (unknown origin). It counts as ADME.
For series [6], the target named is T2, Cytochrome P450 2C8 (Homo sapiens, UniProt P10632).
T2 sequence (P10632 whole entry): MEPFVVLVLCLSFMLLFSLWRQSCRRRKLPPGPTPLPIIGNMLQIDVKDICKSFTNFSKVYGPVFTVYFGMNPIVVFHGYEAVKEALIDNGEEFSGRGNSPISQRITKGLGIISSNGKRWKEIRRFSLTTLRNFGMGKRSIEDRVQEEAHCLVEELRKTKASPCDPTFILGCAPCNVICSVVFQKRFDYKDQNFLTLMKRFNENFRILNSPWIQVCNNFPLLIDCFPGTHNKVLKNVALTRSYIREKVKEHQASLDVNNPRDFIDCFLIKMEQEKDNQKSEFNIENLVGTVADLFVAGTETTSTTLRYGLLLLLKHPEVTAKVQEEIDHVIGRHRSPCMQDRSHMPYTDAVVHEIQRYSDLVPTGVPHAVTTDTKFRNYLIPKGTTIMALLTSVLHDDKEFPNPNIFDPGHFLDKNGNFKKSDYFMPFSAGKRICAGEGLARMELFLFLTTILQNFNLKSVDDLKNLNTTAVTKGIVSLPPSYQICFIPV
The experiment in a line: Inhibition of CYP2C8 (unknown origin). It counts as ADME.

Series [7] can be described thus: Permeability of compound at pH 7.4 by PAMPA. It counts as ADME. The note with it: read-out: permeability.
The nature of series [8]: Metabolic stability in mouse liver microsomes assessed as compound remaining at 0.5 uM incubated for 10 mins in presence of NADPH by UV absorbance based assay. The note with it: read-out: Stability. The series is classed as ADME, Microsome.
Series [9] deals with Cytochrome P450 2C19 (Homo sapiens, UniProt P33261). The experiment in a line: Inhibition of CYP2C19 (unknown origin). The series is classed as ADME.
Series [10] deals with T3, Cytochrome P450 1A2 (Homo sapiens, UniProt P05177).
T3 sequence (P05177 whole entry): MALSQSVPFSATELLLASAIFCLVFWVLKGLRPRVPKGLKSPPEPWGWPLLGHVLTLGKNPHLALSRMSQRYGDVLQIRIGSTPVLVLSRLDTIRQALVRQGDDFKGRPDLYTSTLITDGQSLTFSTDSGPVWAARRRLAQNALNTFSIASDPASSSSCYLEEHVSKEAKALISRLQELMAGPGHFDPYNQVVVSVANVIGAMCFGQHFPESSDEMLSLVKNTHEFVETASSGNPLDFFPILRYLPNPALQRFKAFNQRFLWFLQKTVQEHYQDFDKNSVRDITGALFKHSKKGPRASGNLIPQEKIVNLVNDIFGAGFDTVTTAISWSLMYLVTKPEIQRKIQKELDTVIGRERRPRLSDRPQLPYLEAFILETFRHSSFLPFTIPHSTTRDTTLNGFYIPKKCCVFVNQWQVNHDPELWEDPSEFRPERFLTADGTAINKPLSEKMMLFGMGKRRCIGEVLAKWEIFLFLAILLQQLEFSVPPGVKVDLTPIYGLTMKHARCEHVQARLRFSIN
The experiment in a line: Inhibition of CYP1A2 (unknown origin). The series is classed as ADME.

Series [11] concerns the target T4, Toll-like receptor 7 (Mus musculus, UniProt P58681).
T4 sequence (P58681 whole entry): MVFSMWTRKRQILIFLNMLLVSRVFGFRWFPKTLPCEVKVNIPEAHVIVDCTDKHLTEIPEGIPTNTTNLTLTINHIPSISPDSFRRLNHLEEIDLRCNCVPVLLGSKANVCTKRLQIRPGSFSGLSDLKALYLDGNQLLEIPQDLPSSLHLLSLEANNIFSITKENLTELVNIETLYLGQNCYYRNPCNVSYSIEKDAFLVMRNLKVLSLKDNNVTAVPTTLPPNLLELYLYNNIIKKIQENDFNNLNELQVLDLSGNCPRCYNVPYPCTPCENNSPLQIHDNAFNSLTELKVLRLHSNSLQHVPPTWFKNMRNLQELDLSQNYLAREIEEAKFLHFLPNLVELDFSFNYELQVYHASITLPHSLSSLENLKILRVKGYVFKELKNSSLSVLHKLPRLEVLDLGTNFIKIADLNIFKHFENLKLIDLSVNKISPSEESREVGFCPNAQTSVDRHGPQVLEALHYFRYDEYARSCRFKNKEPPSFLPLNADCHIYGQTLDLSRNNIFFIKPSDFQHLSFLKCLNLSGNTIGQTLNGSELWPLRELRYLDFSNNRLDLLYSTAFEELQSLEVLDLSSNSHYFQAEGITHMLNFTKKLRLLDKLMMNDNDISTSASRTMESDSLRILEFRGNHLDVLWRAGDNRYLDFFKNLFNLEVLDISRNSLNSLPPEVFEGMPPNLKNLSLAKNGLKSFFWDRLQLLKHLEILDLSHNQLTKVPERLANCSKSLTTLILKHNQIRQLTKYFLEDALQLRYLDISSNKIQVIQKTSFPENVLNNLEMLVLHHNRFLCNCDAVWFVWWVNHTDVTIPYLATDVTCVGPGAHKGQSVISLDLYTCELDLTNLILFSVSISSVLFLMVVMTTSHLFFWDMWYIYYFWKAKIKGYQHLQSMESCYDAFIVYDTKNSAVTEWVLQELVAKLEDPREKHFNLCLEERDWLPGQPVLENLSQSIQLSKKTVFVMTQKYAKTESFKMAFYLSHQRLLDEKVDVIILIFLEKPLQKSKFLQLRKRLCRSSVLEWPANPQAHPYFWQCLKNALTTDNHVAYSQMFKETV
Put plainly: (§1) Agonist activity at mouse TLR7.

The target of series [12] is Cytochrome P450 2C9 (Homo sapiens, UniProt P11712). The experiment in a line: Inhibition of CYP2C9 (unknown origin). The series is classed as ADME.
A short description of series [13]: Metabolic stability in human liver microsomes assessed as compound remaining at 0.5 uM incubated for 10 mins in presence of NADPH by UV absorbance based assay. The note with it: read-out: Stability. It counts as ADME, Microsome.
Series [14] deals with T1, Cytochrome P450 3A4. Put plainly: Inhibition of CYP3A4 (unknown origin) using BFC as substrate preincubated with compound followed by substrate addition at 5 mins. It counts as ADME.
Series [15] has as its target T5, Toll-like receptor 7 (Homo sapiens, UniProt Q9NYK1).
T5 sequence (Q9NYK1 whole entry): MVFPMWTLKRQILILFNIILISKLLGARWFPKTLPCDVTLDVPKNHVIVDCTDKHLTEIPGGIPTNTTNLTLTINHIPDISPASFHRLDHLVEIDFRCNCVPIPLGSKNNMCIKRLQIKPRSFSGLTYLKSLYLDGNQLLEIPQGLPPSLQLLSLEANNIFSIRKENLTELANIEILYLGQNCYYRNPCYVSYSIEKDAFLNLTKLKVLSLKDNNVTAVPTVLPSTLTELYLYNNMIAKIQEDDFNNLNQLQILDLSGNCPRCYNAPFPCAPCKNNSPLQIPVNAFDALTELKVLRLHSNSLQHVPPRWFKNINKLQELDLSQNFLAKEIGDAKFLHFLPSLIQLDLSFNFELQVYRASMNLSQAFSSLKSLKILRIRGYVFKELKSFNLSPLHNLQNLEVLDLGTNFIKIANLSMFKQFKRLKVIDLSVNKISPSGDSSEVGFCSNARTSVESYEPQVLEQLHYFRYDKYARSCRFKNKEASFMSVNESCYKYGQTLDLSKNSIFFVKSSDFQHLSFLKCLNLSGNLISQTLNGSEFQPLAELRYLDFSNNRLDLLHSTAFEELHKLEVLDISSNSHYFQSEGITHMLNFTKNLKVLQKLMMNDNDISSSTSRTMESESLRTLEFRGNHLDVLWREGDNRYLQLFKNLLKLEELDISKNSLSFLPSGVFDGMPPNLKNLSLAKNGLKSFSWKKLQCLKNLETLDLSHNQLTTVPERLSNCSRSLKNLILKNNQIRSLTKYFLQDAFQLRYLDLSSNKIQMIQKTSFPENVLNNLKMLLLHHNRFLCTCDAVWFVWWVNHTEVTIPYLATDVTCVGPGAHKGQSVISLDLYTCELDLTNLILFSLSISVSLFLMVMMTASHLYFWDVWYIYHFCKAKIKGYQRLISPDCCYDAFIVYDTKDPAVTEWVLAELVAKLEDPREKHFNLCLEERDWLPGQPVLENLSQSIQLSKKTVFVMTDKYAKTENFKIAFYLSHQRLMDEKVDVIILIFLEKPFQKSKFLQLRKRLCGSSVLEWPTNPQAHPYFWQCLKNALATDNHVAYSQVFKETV
The experiment in a line: Agonist activity at human TLR7 in HEK-Blue hTLR7 cells harboring SEAP reporter transgene incubated for 18 hrs by quanti-blue reagent based assay. The series is classed as cell-based.

Series [16] deals with T6, Toll-like receptor 7 (Mus musculus) (UniProt P58681).
T6 sequence (whole entry): T4 sequence (P58681 whole entry)
The description is as §1.

Each structure is given as a SMILES string. Active and inactive are the calls of the source. No cut-off for these calls is given here.

Cytochrome P450 2D6, sequence (P10635 whole entry): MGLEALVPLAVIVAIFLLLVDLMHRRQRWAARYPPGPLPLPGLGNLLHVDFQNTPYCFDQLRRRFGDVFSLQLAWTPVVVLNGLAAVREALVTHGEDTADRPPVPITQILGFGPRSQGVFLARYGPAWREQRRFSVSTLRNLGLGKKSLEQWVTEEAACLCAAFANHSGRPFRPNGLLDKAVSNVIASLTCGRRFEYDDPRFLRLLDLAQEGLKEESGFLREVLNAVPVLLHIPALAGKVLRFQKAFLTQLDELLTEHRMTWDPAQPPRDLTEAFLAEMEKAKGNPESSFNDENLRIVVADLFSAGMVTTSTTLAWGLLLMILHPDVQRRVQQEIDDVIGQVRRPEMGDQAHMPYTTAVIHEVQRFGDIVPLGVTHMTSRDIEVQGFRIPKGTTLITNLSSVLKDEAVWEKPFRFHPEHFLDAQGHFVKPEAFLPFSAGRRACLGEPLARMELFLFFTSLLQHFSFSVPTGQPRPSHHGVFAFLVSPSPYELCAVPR
Cytochrome P450 2C19, sequence (P33261 whole entry): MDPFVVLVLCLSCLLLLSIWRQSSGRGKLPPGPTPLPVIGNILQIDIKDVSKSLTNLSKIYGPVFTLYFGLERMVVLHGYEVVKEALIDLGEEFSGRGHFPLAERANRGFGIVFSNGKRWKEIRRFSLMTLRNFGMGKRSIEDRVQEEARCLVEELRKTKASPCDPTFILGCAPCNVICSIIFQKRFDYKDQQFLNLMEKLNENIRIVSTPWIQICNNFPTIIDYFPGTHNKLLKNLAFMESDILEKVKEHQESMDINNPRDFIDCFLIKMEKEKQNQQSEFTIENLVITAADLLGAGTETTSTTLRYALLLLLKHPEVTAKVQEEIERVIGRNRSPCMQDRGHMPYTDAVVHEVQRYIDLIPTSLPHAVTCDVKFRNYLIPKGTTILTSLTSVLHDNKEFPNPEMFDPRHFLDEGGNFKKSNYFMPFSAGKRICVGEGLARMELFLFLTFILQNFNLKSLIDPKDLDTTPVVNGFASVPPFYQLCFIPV
Cytochrome P450 2C9, sequence (P11712 whole entry): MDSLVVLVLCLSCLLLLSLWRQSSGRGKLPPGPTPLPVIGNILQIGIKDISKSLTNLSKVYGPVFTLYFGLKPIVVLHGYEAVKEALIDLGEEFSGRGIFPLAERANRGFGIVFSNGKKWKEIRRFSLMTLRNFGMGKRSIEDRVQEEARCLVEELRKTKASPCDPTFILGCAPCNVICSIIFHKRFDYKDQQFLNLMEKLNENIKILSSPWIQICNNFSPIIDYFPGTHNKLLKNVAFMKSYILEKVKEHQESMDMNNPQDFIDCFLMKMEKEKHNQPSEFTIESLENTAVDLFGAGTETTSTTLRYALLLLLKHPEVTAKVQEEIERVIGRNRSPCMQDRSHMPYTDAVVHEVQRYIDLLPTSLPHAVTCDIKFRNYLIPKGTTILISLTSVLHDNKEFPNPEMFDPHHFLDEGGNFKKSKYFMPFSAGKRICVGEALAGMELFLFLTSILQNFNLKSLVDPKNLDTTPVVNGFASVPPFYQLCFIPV
Voltage-gated inwardly rectifying potassium channel KCNH2, sequence (Q12809 whole entry): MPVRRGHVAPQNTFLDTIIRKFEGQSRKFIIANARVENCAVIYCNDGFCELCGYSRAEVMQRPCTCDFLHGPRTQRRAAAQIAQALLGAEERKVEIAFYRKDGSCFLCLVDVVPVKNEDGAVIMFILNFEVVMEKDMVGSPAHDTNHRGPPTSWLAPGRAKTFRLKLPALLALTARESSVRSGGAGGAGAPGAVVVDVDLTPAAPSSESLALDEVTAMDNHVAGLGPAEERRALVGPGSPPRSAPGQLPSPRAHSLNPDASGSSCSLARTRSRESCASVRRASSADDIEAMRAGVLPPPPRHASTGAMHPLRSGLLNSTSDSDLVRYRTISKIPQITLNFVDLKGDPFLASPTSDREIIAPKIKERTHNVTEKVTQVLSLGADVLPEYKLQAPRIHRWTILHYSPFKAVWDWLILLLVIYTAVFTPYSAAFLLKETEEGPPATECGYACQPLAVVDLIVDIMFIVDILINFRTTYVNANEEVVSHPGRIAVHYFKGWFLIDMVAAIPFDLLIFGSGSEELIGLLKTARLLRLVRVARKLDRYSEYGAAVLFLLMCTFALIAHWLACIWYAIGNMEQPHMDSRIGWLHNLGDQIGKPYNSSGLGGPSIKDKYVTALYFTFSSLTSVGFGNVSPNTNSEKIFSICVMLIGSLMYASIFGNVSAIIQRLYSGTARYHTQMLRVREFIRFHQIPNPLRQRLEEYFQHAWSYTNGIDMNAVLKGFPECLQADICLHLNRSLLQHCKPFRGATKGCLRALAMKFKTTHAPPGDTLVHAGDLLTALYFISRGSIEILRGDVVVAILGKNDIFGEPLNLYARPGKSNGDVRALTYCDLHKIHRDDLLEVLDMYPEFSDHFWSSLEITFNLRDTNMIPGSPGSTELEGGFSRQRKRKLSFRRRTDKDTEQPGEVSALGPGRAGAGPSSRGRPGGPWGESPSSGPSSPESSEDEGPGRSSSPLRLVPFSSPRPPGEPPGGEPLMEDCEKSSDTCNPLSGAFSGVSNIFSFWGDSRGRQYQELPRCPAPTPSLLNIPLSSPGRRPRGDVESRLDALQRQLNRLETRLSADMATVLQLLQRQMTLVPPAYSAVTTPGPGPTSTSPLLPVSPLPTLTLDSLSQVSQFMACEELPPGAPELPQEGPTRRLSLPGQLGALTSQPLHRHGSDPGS
T1 sequence (P08684 whole entry): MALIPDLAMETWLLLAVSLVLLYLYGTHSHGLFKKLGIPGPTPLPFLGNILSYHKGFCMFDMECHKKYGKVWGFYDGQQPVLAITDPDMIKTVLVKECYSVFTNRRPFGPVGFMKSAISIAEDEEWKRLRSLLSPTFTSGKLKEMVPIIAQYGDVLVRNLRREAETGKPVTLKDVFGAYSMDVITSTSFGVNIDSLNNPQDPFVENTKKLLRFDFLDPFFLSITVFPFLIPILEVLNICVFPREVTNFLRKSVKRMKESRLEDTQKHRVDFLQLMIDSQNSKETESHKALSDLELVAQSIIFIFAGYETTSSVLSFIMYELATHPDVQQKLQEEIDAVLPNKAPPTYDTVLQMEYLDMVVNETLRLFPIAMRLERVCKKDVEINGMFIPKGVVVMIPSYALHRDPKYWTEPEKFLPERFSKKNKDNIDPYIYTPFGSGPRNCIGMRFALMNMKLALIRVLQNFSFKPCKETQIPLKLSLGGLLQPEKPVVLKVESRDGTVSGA

As for `CCC[C@@H](CCO)Nc1nc(N)nc2cnn(Cc3ncc(C4CCN(C)CC4)cc3OC)c12`, the 50% inhibitory concentration (IC50) at 72 h in series [1] was more than 25 µM. Besides, the IC50 in series [2] is more than 20 µM; in series [3], 43 µM; in series [4], more than 20 µM; in [5] it was more than 20 µM; in series [6], more than 20 µM; in series [9], more than 20 µM. The concentration for half-maximal inhibition (IC50) in [10], in [12] and in series [14] was more than 20 µM each time. Moreover, in series [7], the Papp is 6.6 ×10⁻⁶ cm/s. The remaining at 10 min, 0.5 µM in [8] came to 76%; in series [13] it was 78%. Further, a half-maximal effect in series [11] (EC50) was put at 0.076 µM.
Consider `CCC[C@H](CCO)Nc1nc(N)nc2cnn(Cc3ncc(C4CCN(C5CCOCC5)CC4)cc3OC)c12`, for which, in [1], the IC50 at 72 h is more than 25 µM. Further, the IC50 in series [2] is more than 20 µM; in series [3], more than 50 µM; in series [4], more than 20 µM; in series [5], more than 20 µM; in series [6] it was more than 20 µM; in series [9], more than 20 µM. Also, the IC50 in series [10], in [12] and in [14] was more than 20 µM throughout. This compound also came in with an EC50 in [15] of 0.272 µM. Further, the figures for the remaining at 10 min, 0.5 µM in series [8] and in series [13] were 95% and 67%, respectively. The result in series [16] was inactive.
For the compound `CCC[C@@H](CCO)Nc1nc(N)nc2cnn(Cc3ncc(C4CCN(CC#N)CC4)cc3OC)c12`, the 50% inhibitory concentration (IC50) at 72 h in series [1] is more than 25 µM. Moreover, the half-inhibitory concentration (IC50) in series [2] was more than 20 µM; in [3] it was 30.2 µM; in series [4], more than 20 µM; in series [5] it was more than 20 µM; in [6] it was more than 20 µM; in [9], more than 20 µM. In addition, the IC50 in series [10], in series [12] and in series [14] was more than 20 µM each time. In addition, in series [15], the 50% effective concentration (EC50) stood at 0.145 µM. Besides, the remaining at 10 min, 0.5 µM in [8] came out at 67%; in series [13] it was 65%. The outcome in series [16] was inactive.
On to `CCC[C@@H](CCO)Nc1nc(N)nc2cnn(Cc3ncc(C4CCN(C(C)C)CC4)cc3OC)c12`, for which, in [1], the IC50 at 72 h is more than 25 µM. The concentration for half-maximal inhibition (IC50) in series [2] is more than 20 µM; in series [3], more than 50 µM; in [4] it was more than 20 µM; in series [5], more than 20 µM; in series [6], more than 20 µM; in series [9] it was more than 20 µM. Also, the 50% inhibitory concentration (IC50) in series [10], in series [12] and in series [14] was more than 20 µM each time. In addition, in [7], the Papp worked out at 93 ×10⁻⁶ cm/s. In addition, the 50% effective concentration (EC50) in series [15] came out at 0.018 µM; in series [11] it was 0.041 µM. The remaining at 10 min, 0.5 µM stood at 78% in [8] and 80% in series [13].
`CCC[C@@H](CCO)Nc1nc(N)nc2cnn(Cc3ncc(C4CCNCC4)cc3OC)c12`: in series [1], the concentration for half-maximal inhibition (IC50) at 72 h was more than 25 µM. Also, the 50% inhibitory concentration (IC50) in series [2] is more than 20 µM; in series [3], more than 50 µM; in [4] it was more than 20 µM; in [5], more than 20 µM; in series [6] it was more than 20 µM; in series [9] it was more than 20 µM. The 50% inhibitory concentration (IC50) in [10], in series [12] and in series [14] was more than 20 µM throughout. Besides, the Papp in [7] turned out to be 0.9 ×10⁻⁶ cm/s. For the same compound, the concentration for a half-maximal effect (EC50) in [15] is 0.163 µM; in series [11], 0.512 µM. Also, the results for the remaining at 10 min, 0.5 µM in series [8] and in series [13] were 85% and 84%, respectively.
